Test results as given in patent US9522881B2, “Hydroxyindole carboxylic acid based inhibitors for oncogenic Src homology-2 domain containing protein tyrosine phosphatase-2 (SHP2)” (Indiana University Research and Technology Corporation, priority 2013, dated 2016).

Key:
MKP5 = MKP5 (Homo sapiens (Human), UniProt Q9Y6W6); test: PTP selectivity panel, pNPP; format: biochemical, mammalian; conditions: pNPP at Km
VHR = VHR (Homo sapiens (Human), UniProt P51452); test: PTP selectivity panel, pNPP; format: biochemical, mammalian; conditions: pNPP at Km
VHR, sequence (P51452 whole entry, species assumed): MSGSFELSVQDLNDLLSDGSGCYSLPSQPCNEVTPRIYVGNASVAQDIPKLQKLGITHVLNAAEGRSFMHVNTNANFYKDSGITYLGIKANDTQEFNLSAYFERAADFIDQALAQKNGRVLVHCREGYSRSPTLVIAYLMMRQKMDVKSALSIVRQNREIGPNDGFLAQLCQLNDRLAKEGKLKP

PTPσ = PTPσ (Homo sapiens (Human), UniProt Q13332); test: PTP selectivity panel, pNPP; format: biochemical, mammalian; conditions: pNPP at Km
PTPσ, sequence (Q13332 30-1948): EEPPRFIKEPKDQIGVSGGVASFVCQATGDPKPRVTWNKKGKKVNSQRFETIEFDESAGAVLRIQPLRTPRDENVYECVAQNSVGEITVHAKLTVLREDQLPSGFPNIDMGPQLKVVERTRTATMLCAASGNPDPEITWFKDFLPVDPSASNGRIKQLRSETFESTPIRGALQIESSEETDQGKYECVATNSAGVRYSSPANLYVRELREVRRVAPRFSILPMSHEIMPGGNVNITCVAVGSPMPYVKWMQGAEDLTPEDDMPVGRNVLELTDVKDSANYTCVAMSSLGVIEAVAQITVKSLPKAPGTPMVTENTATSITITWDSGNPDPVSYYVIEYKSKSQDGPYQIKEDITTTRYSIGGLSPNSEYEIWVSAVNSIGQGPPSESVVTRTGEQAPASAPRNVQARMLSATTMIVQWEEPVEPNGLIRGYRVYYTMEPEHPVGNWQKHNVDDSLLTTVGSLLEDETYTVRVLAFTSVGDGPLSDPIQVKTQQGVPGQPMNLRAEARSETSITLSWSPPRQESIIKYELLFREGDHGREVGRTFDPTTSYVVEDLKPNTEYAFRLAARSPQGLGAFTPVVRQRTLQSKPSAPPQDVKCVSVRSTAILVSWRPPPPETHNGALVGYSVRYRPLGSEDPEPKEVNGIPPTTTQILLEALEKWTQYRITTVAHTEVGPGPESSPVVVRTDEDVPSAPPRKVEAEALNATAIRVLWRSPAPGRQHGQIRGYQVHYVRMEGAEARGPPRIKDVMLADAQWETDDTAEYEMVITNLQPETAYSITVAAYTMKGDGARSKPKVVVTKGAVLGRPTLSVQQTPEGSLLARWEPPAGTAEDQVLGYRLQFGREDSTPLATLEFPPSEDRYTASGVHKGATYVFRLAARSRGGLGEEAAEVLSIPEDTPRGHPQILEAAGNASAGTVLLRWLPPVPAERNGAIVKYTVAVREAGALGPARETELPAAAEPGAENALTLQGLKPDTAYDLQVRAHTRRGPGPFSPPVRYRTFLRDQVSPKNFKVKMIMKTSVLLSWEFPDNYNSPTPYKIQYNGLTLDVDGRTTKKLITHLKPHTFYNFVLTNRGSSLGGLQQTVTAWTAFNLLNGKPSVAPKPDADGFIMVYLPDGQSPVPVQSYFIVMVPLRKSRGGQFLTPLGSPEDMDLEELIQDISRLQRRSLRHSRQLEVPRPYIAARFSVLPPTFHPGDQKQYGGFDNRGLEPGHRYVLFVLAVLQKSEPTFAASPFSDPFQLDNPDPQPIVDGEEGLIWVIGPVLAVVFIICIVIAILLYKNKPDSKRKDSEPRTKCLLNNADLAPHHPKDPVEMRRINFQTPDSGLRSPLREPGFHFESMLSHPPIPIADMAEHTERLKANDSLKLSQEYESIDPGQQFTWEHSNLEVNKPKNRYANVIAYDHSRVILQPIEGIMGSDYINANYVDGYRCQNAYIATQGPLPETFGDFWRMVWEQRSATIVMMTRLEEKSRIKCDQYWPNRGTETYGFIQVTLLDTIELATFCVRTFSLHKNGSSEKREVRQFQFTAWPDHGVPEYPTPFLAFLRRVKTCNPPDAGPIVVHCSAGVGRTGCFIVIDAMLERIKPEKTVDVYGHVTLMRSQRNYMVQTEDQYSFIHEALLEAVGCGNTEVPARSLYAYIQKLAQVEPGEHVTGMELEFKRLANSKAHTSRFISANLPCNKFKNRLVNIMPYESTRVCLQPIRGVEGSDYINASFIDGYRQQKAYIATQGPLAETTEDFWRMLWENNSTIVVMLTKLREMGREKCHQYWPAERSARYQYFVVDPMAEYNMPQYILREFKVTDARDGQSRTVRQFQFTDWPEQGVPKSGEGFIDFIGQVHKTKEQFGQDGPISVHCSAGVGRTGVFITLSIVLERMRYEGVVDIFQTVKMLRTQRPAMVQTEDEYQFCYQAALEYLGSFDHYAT

PTPε = PTPε (Homo sapiens (Human), UniProt P23469); test: PTP selectivity panel, pNPP; format: biochemical, mammalian; conditions: pNPP at Km
PTPε, sequence (P23469 20-700): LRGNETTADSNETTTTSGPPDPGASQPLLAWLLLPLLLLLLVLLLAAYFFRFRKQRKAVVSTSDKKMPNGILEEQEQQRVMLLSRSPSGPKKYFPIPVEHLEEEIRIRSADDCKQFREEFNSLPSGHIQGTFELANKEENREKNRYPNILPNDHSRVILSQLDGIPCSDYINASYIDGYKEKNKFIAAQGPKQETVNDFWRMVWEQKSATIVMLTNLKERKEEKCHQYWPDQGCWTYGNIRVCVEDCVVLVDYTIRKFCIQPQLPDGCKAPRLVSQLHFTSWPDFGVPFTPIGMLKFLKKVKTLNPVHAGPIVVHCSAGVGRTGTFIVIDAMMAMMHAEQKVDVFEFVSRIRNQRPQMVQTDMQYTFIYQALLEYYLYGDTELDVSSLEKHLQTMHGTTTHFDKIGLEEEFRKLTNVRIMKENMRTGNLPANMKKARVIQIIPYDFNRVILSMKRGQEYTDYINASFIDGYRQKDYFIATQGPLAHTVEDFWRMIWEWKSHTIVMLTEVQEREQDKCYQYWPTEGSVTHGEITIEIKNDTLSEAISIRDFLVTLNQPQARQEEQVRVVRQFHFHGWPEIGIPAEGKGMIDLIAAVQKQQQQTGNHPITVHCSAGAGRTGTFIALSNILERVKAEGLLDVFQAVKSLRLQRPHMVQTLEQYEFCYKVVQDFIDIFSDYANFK

mPTPA = mPTPA (Mycobacterium tuberculosis (strain ATCC 25618 / H37Rv), UniProt P9WIA1); test: PTP selectivity panel, pNPP; format: biochemical; conditions: pNPP at Km
H1975 cells = test: H1975 cell proliferation (MTT assay); format: cell-based; conditions: Homo sapiens, NCI-H1975, 48 h, treatment for 2 days
Experimental: Particularly, human non-small cell lung carcinoma cell line H1975 was obtained from the American Tissue Culture Collection and cultured at 37° C. and 5% CO2 in RPMI-1640 (Corning, Corning, N.Y.) supplemented with 10% fetal bovine serum. 3×10^3 cells were seeded in each well of 96-well plates. After treatment with compound 11a-1 for 2 days, cells were incubated with 50 μg/ml MTT (3-(4,5-Dimethylthiazol-2-yl)-2,5-diphenyltetrazolium bromide (Sigma, St. Louis, Mo.) for 3-4 hours. Then, the culture medium was removed, DMSO was added to dissolve the formazan crystals. Wells containing only media were used for background correction. The optical density was measured spectrophotometrically at 540 nm.

SKBR3 cells = test: SKBR3 breast cancer cell growth in Matrigel; format: cell-based
Experimental: Approximately 300,000 SKBR3 cells were seeded into 150 μl of growth factor reduced Matrigel (Corning, Corning, N.Y.) in 35 mm dishes. To 3 dishes for each condition, 2 mL of media containing either 10 μl vehicle (DMSO) or compound 11a-1 at the indicated concentration was then added. Every 24 hours, the cells were imaged with a NIKON SMZ1500 stereomicroscoppe. The cross-sectional area of individual colonies from each image were measured using Adobe Photoshop software. After 4 days, the cells were recovered from the Matrigel and lysed in PLC buffer containing protease inhibitor cocktail (Cat. No. P8340; Sigma-Aldrich, St. Louis, Mo.). Lysates were then resolved by SDS-PAGE and relative levels of the indicated proteins were detected by immunoblot analysis.

[1] = test system: 32D myeloid cells bearing KITD814V; test: Proliferation (thymidine incorporation) of 32D myeloid cells bearing KITD814V; format: cell-based
Experimental: (§1) FIG. 8A is a graph depicting 32D myeloid cells bearing wild-type (WT) KIT or KITD814V that were starved of serum and growth factors for 6 hours and subjected to proliferation assay in the presence or absence of the indicated concentration of II-B08 or 11a-1 as analyzed in Example 6. Assay was performed in the presence of IL-3 (10 ng/mL) for cells bearing WT KIT and in the absence of growth factors for cells bearing oncogenic KITD814V. Bars denote the mean thymidine incorporation (CPM±SEM) consolidated from four independent experiments performed in triplicate. *p<0.05.
(§2) To further determine the efficacy of compound 11a-1, the growth of oncogenic KITD814V bearing 32D myeloid cells in the presence of II-B08 and 11a-1 were compared. Specifically, the wild-type (WT) KIT and KITD814V were inserted into the bicistronic retroviral vector, MIEG3, upstream of the internal ribosome entry site (IRES) and the enhanced green fluorescent protein (EGFP) gene as previously described in Mali et al., 2012. Retroviral supernatants for transduction of 32D myeloid cells and primary hematopoietic stem and progenitor cells were generated using Phoenix ecotropic packaging cell line transfected with retroviral vector plasmids using a calcium phosphate transfection kit (Invitrogen, Carlsbad, Calif.). Supernatants were collected 48 hours after transfection and filtered through 0.45 μm membranes. 32D myeloid cells were infected twice at 24-hour intervals with 2 mL high/titer virus supernatant in the presence of 10 ng/mL IL-3 and 8 μg/mL polybrene. Forty-eight hours after infection, 32D cells expressing WT KIT or KITD814V receptors were sorted to homogeneity based on EGFP expression and utilized to perform all of the experiments.

[2] = test system: 32D myeloid cells bearing wild-type (WT) KIT; test: Proliferation (thymidine incorporation) of 32D myeloid cells bearing WT KIT; format: cell-based; conditions: tested concentrations, with IL-3
Experimental: as §1
as §2, with “32D myeloid cells were infected twice at 24-hour intervals with 2 mL high/titer virus supernatant in the presence of 10 ng/mL IL-3 and 8 μg/mL polybrene. Forty-eight hours after infection, 32D cells expressing WT KIT or KITD814V receptors were sorted to homogeneity based on EGFP expression and utilized to perform all of the experiments.” left out

[3] = test system: primary low density bone marrow cells bearing KITD814V; test: Proliferation of primary bone marrow cells bearing KITD814V; format: cell-based, C57BL/6 mice; conditions: 1 μM and 5 μM, compared to II-B08
Experimental: FIG. 8B is a graph depicting WT hematopoietic stem and progenitor cells bearing KITD814V that were starved of serum and growth factors for 6 hours and subjected to proliferation assay in the presence or absence of indicated concentration of II-B08 or 11a-1 as analyzed in Example 6. Bars denote the mean thymidine incorporation (CPM±SD) performed in triplicate from one experiment. *p<0.05.
To further determine the effect of II-B08 and compound 11a-1 on primary bone marrow cells bearing oncogenic KITD814V, primary low density bone marrow cells from C57BL/6 mice were transduced with KITD814V and sorted cells were subjected to a proliferation assay in the presence or absence of the SHP2 inhibitors, II-B08 and compound 11a-1. To express WT KIT and KITD814V receptors in bone marrow cells, low density bone marrow cells were collected from WT mice, and pre-stimulated in IMDM supplemented with 20% FBS, 2% penicillin/streptomycin, and cytokines (100 ng/mL SCF, 100 ng/mL TPO, 50 ng/mL FLT3-L and 4 ng/mL IL-6) for 48 hours prior to retroviral infection on fibronectin fragments (Retronectin) in non-tissues culture plates. On the third day, cells were infected with 2 mL of high-titer retroviral supernatants for WT KIT or KITD814V prepared as described above. A second shot of viral infection was given 24 hours later. […]

[4] = test system: phosphorylation of SHP2, Akt and Erk1/2; test: Phosphorylation of SHP2, Akt and Erk1/2 in 32D cells bearing KITD814V (western blot); format: cell-based; conditions: incubated 2 hours
Experimental: FIG. 8C depicts 32D myeloid cells bearing KITD814V that were starved of serum and growth factors for 6 hours and incubated with the indicated concentration of 11a-1 for 2 hours as analyzed in Example 6. After treatment, cells were lysed and equal amount of protein lysates were subjected to western blot analysis using indicated antibodies.

MKP5, sequence (Q9Y6W6 whole entry, species assumed): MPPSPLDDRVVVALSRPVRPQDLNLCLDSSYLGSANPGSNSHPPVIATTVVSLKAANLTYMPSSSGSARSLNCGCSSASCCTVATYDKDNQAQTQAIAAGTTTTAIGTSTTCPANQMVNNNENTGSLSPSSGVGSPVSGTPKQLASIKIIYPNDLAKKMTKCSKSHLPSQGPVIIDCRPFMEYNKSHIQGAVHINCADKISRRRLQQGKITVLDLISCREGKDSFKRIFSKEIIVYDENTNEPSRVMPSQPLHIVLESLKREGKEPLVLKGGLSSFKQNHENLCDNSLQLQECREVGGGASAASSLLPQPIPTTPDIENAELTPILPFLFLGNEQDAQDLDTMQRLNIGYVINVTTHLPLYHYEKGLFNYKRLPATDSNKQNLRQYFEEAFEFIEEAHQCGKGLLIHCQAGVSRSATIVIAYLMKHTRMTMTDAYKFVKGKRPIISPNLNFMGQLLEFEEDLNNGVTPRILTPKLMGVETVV

Cn1c(-c2cccc(NC(=O)C(=O)Nc3ccc(-c4ccsc4)cc3)c2)c(I)c2cc(C(=O)O)c(O)cc21 [11a-1, 6-hydroxy-3-iodo-1-methyl-2-(3-(2-oxo-2-((4-(thiophen-3-yl)phenyl)amino)acetamido)phenyl)-1H-indole-5-carboxylic acid]
IC50 (MKP5): 2900 ± 100 nM
IC50 (VHR): 3190 ± 90 nM
IC50 (PTPσ): 8600 ± 400 nM
IC50 (PTPε): > 20000 nM
IC50 (mPTPA): 1090 ± 40 nM
IC50 (H1975 cells): 170 ± 20 nM
growth of SKBR3 cells in Matrigel (SKBR3 cells; 3 μM, within 24 hours): potently inhibited
ErbB2+ breast cancer cell growth in a 3D Matrigel environment (SKBR3 cells; SKBR3, over 4 days, indicated concentrations): inhibited
ligand independent growth of KITD814V bearing 32D cells ([1]; 1 μM): significant inhibition
ligand independent growth of KITD814V bearing 32D cells ([1]; 5 μM): significant inhibition
growth of WT KIT bearing 32D cells [2]: no significant suppression
growth of primary bone marrow cells bearing KITD814V [3]: significant reduced growth
phosphorylation of SHP2, Akt and Erk1/2 in KITD814V bearing 32D cells [4]: dose dependent inhibition
